# Measured values published in article PMC11574862 (The Journal of General Physiology, 2024).
# Values joined by “and” are separate entries in the source; they are usually repeats but may differ in a detail not shown here. Equal values may be shown once.
# Legend:
# Assay type in all cases: binding
# VC0430 (VcGluP) wildtype [1] = target: T1, VC0430 (VcGluP) wildtype (Vibrio cholerae, UniProt Q9KUT5)
# VC0430 (VcGluP) wildtype [2] = target: T1, VC0430 (VcGluP) wildtype; experiment: biochemical
# VcGluP Y45A = VcGluP Y45A (Vibrio cholerae, UniProt Q9KUT5, Y45A)
# VcGluP S75A = VcGluP S75A (Vibrio cholerae, UniProt Q9KUT5, S75A)
# VcGluP Q93A = VcGluP Q93A (Vibrio cholerae, UniProt Q9KUT5, Q93A)
# VcGluP E125A = VcGluP E125A (Vibrio cholerae, UniProt Q9KUT5, E125A)
# VcGluP Y200A = VcGluP Y200A (Vibrio cholerae, UniProt Q9KUT5, Y200A)
# VcGluP M201A = VcGluP M201A (Vibrio cholerae, UniProt Q9KUT5, M201A)
structure (smiles),measurement,setting,value
NC(=O)CCC(N)C(=O)O (stereo in doubt) [D-glutamine],Average Tm,VC0430 (VcGluP) wildtype [1],46.40 °C and 47.06 °C and 48.72 °C
same,Tm Replicate 1,VC0430 (VcGluP) wildtype [1],46.73 °C and 46.72 °C and 48.72 °C
same,Tm Replicate 2,VC0430 (VcGluP) wildtype [1],45.74 °C and 47.72 °C and 48.72 °C
same,Tm Replicate 3,VC0430 (VcGluP) wildtype [1],46.73 °C (2×) and 48.72 °C
same,fluorescence enhancement in titration (Kd could not be determined),VC0430 (VcGluP) wildtype [2],lack of fluorescence enhancement
N[C@H](CCC(=O)O)C(=O)O [D-glutamate],Average Tm,VC0430 (VcGluP) wildtype [1],58.65 °C
same,Tm Replicate 1,VC0430 (VcGluP) wildtype [1],58.65 °C
same,Tm Replicate 2,VC0430 (VcGluP) wildtype [1],58.65 °C
same,Tm Replicate 3,VC0430 (VcGluP) wildtype [1],58.65 °C
same,Kd,VC0430 (VcGluP) wildtype [2],24.5 ± 10.6 µM
N[C@@H](CC(=O)O)C(=O)O [L-aspartate],Average Tm,VC0430 (VcGluP) wildtype [1],47.06 °C
same,Tm Replicate 1,VC0430 (VcGluP) wildtype [1],47.72 °C
same,Tm Replicate 2,VC0430 (VcGluP) wildtype [1],45.74 °C
same,Tm Replicate 3,VC0430 (VcGluP) wildtype [1],47.73 °C
same,change in VC0430's Tm (Tm increase),VC0430 (VcGluP) wildtype [1],no change
N[C@@H](CCC(=O)O)C(=O)O [L-glutamate],Kd,VC0430 (VcGluP) wildtype [2],0.065 ± 0.031 µM
same,ligand concentration giving maximum fluorescence enhancement,VcGluP Y45A,≤ 50 µM
same,ligand concentration giving maximum fluorescence enhancement,VcGluP S75A,≤ 50 µM
same,ligand concentration needed to saturate fluorescence enhancement,VcGluP Q93A,a higher concentration was required
same,ligand concentration giving maximum fluorescence enhancement,VcGluP E125A,≤ 50 µM
same,ligand concentration giving maximum fluorescence enhancement,VcGluP Y200A,≤ 50 µM
same,ligand concentration giving maximum fluorescence enhancement,VcGluP M201A,≤ 50 µM
NC(=O)CC[C@H](N)C(=O)O [L-glutamine],Tm Replicate 2,VC0430 (VcGluP) wildtype [1],50.70 °C and 53.68 °C and 55.67 °C and 50.71 °C
same,Kd,VC0430 (VcGluP) wildtype [2],11 ± 2 µM
NCCCC[C@H](N)C(=O)O [L-lysine],Average Tm,VC0430 (VcGluP) wildtype [1],44.41 °C
same,Tm Replicate 1,VC0430 (VcGluP) wildtype [1],43.75 °C
same,Tm Replicate 2,VC0430 (VcGluP) wildtype [1],44.74 °C
same,Tm Replicate 3,VC0430 (VcGluP) wildtype [1],44.74 °C
same,change in VC0430's Tm (Tm increase),VC0430 (VcGluP) wildtype [1],no change
O=C(O)[C@@H]1CCC(O)=N1 [L-pyroglutamate],effect on VcGluP's stability (DSF),VC0430 (VcGluP) wildtype [1],enhanced VcGluP’s stability in a dose-dependent manner
same,Kd,VC0430 (VcGluP) wildtype [2],50 ± 16 µM
O=C(O)CCCCC(=O)O [adipate],Average Tm,VC0430 (VcGluP) wildtype [1],44.74 °C
same,Tm Replicate 1,VC0430 (VcGluP) wildtype [1],43.75 °C
same,Tm Replicate 2,VC0430 (VcGluP) wildtype [1],45.74 °C
same,Tm Replicate 3,VC0430 (VcGluP) wildtype [1],44.74 °C
same,change in VC0430's Tm (Tm increase),VC0430 (VcGluP) wildtype [1],no change
O=C(O)CCC(=O)C(=O)O [α-ketoglutarate],Average Tm,VC0430 (VcGluP) wildtype [1],47.39 °C
same,Tm Replicate 1,VC0430 (VcGluP) wildtype [1],50.71 °C
same,Tm Replicate 2,VC0430 (VcGluP) wildtype [1],45.74 °C
same,Tm Replicate 3,VC0430 (VcGluP) wildtype [1],45.74 °C
same,change in VC0430's Tm (Tm increase),VC0430 (VcGluP) wildtype [1],no change
